This passage reports IC50 and inhibition results from ChEMBL document CHEMBL4715762, “Discovery of anabaenopeptin 679 from freshwater algal bloom material: Insights into the structure-activity relationship of anabaenopeptin protease inhibitors” (Bioorg Med Chem Lett, 2016).

The target of experiment [1] is T1, Carboxypeptidase A1 (Homo sapiens, UniProt P15085).
T1 sequence (P15085 whole entry): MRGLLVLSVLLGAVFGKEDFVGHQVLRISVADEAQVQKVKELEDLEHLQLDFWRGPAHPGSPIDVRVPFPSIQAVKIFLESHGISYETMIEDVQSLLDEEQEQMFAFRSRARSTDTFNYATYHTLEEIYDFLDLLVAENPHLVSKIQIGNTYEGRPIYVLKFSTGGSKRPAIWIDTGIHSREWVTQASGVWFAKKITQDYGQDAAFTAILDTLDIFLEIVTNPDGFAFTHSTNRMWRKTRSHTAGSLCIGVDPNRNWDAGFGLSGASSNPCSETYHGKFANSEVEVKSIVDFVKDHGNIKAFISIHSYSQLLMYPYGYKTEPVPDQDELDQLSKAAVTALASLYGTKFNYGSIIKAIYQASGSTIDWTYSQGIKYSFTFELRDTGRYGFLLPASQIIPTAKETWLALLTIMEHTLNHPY
Put plainly: Inhibition of carboxypeptidase A (unknown origin) assessed as reduction in degradation of N-(4-methoxyphenylazoformyl)-Phe-OH using N-(4-methoxyphenylazoformyl)-Phe-OH as substrate.

The target in experiment [2] is T2, Carboxypeptidase A1 (Homo sapiens) (UniProt P15085).
T2 sequence (whole entry): T1 sequence (P15085 whole entry)
Kind of experiment: Inhibition of carboxypeptidase A (unknown origin) assessed as reduction in degradation of N-(4-methoxyphenylazoformyl)-Phe-OH at > 10 uM using N-(4-methoxyphenylazoformyl)-Phe-OH as substrate. The conditions noted are these: dose microM >10.

Experiment [3] has as its target T1, Carboxypeptidase A1. Put plainly: Inhibition of carboxypeptidase A (unknown origin).
Experiment [4] concerns the target T1, Carboxypeptidase A1. Put plainly: Inhibition of carboxypeptidase A (unknown origin) assessed as reduction in hydrolysis of hippuryl-L-phenylalanine using hippuryl-L-phenylalanine as substrate.
Experiment [5] has as its target T3, Carboxypeptidase A1 (Bos taurus, UniProt P00730).
T3 sequence (P00730 whole entry): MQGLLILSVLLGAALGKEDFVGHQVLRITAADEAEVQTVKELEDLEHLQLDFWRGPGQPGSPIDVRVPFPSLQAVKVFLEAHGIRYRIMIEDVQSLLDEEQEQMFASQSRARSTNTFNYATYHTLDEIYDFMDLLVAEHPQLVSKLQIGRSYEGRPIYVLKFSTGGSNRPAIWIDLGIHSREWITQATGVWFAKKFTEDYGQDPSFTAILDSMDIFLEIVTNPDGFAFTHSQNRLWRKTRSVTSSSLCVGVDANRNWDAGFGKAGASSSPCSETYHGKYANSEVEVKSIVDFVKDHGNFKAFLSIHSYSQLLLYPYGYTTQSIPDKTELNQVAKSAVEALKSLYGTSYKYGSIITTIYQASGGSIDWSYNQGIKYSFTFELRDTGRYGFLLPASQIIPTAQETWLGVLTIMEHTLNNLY
Kind of experiment: Inhibition of carboxypeptidase A in bovine pancreas assessed as reduction in hydrolysis of hippuryl-L-phenylalanine using hippuryl-L-phenylalanine as substrate measured after 2 hrs. The experiment is classed as tissue-based.

Structures are written as SMILES. Calls of active or inactive are those of the source. No cut-off for these calls is given here. Starred links: 1 amine or outer side, 2 acyl side, 3 side chain; linkers in the order of their positions; H or OH if unused. Positions of bridges follow the written chain, without caps; N, C: chain ends. Non-standard residues stand in square brackets, D forms with d. Residues, ends and D or L forms follow the SMILES beside them. NMehTyr = CN[C@@H](CCc1ccc(O)cc1)C(=O)O; X1 = NC(=O)N[C@H](CCCCN[*:1])C(=O)[*:2]; hTyr = N[C@@H](CCc1ccc(O)cc1)C(=O)O; NMeA = CN[C@@H](C)C(=O)O; CO = O=C([*:1])[*:2]

Take `CC(C)[C@@H]1NC(=O)[C@H](NC(N)=O)CCCCNC(=O)[C@H](Cc2ccccc2)NC(=O)[C@H](C)N(C)C(=O)[C@H](CCc2ccc(O)cc2)NC1=O` (cyclo(F[X1]V[hTyr][NMeA])): the half-inhibitory concentration (IC50) at Carboxypeptidase A1 [1] is 6.74 µM.
Take `CC[C@H](C)[C@@H]1NC(=O)[C@H](CCc2ccc(O)cc2)N(C)C(=O)[C@H](CCc2ccc(O)cc2)NC(=O)[C@H](C(C)C)NC(=O)[C@H](NC(=O)N[C@@H](CCCNC(=N)N)C(=O)O)CCCCNC1=O` [ANABAENOPEPTIN 908] ({Arg-CO}-[dK]V[hTyr][NMehTyr]I; lactam 1-C): the IC50 on Carboxypeptidase A1 [1] is over 11 µM; at Carboxypeptidase A1 [3] it was over 22 µM. In experiment [2], the inhibition result is “Active”.
For `CC(C)[C@@H]1NC(=O)[C@H](NC(=O)N[C@@H](CCCNC(=N)N)C(=O)O)CCCCNC(=O)[C@H](Cc2ccccc2)NC(=O)[C@H](C)N(C)C(=O)[C@H](CCc2ccc(O)cc2)NC1=O` [ANABAENOPEPTIN B] ({Arg-CO}-[dK]V[hTyr][NMeA]F; lactam 1-C), at Carboxypeptidase A1 [1], the IC50 was over 24 µM.
Still for that read-out and setting: with `CC[C@H](C)[C@@H]1NC(=O)[C@H](NC(=O)N[C@@H](CCCNC(=N)N)C(=O)O)CCCCNC(=O)[C@H](Cc2ccccc2)NC(=O)[C@H](C)N(C)C(=O)[C@H](CCc2ccc(O)cc2)NC1=O` [ANABAENOPEPTIN F] ({Arg-CO}-[dK]I[hTyr][NMeA]F; lactam 1-C) the figure was over 24 µM.
As to `CC[C@H](C)[C@@H]1NC(=O)[C@H](NC(=O)N[C@@H](Cc2ccc(O)cc2)C(=O)O)CCCCNC(=O)[C@H]([C@@H](C)CC)NC(=O)[C@H](CCc2ccc(O)cc2)N(C)C(=O)[C@H](CCc2ccc(O)cc2)NC1=O` [ANABAENOPEPTIN G] ({Tyr-CO}-[dK]I[hTyr][NMehTyr]I; lactam 1-C), at Carboxypeptidase A1 [4], the IC50 worked out at 2 nM.
Turning to `CC[C@H](C)[C@@H]1NC(=O)[C@H](NC(=O)N[C@@H](CCCNC(=N)N)C(=O)O)CCCCNC(=O)[C@H]([C@@H](C)CC)NC(=O)[C@H](CCc2ccc(O)cc2)N(C)C(=O)[C@H](CCc2ccc(O)cc2)NC1=O` [ANABAENOPEPTIN H] ({Arg-CO}-[dK]I[hTyr][NMehTyr]I; lactam 1-C), the 50% inhibitory concentration (IC50) at Carboxypeptidase A1 [1] was 10.2 µM.
With `CC[C@H](C)[C@H](NC(=O)N[C@@H]1CCCCNC(=O)[C@H]([C@@H](C)CC)NC(=O)[C@H](CCc2ccc(O)cc2)N(C)C(=O)[C@H](CCc2ccc(O)cc2)NC(=O)[C@H](C(C)C)NC1=O)C(=O)O` [ANABAENOPEPTIN T] ({Ile-CO}-[dK]V[hTyr][NMehTyr]I; lactam 1-C), the half-maximal inhibitory concentration (IC50) at Carboxypeptidase A1 [5] came to 2300 nM.
